Reference: patent publication US4692443A, “3-bicyclicpyridinium-methyl cephalosporins” (Eli Lilly and Company, priority 1984, dated 1987)
Converted amounts (≈) assume the structure as drawn. Read-outs that look alike come from different tables or passages of the source.

Legend:
Enterobacter cloacae EB5 = assay: standard in vitro agar dilution assay (MIC); type: cell-based
Staph. aureus S13E = assay: microbe, parasite or virus in culture; type: cell-based; conditions: Staphylococcus aureus, read-out: Agar Dilution MIC
Serratia X99 = assay: standard in vitro agar dilution assay (MIC); type: cell-based
Pseudomonas X239 = assay: standard in vitro agar dilution assay (MIC); type: cell-based; conditions: Pseudomonas strain X239
Staph. aureus X400 = assay: standard in vitro agar dilution assay (MIC); type: cell-based; conditions: Staphylococcus aureus; Staph. aureus strain X400
Strep. D X66 = assay: standard in vitro agar dilution assay (MIC); type: cell-based; conditions: Strep. D strain X66
Strep. D 9960 = assay: standard in vitro agar dilution assay (MIC); type: cell-based; conditions: Strep. D strain 9960
Staph. aureus X1.1 = assay: standard in vitro agar dilution assay (MIC); type: cell-based; conditions: Staphylococcus aureus
Salmonella X514 = assay: standard in vitro agar dilution assay (MIC); type: cell-based; conditions: Salmonella strain X514; read-out: Agar Dilution MIC
Staph. aureus V41 = assay: standard in vitro agar dilution assay (MIC); type: cell-based; conditions: Staphylococcus aureus
Staph. epi EPI1 = assay: standard in vitro agar dilution assay (MIC); type: cell-based; conditions: Staph. epi strain EPI1
Klebsiella KAE = assay: standard in vitro agar dilution assay (MIC); type: cell-based; conditions: Klebsiella strain KAE; read-out: Agar Dilution MIC
Strep. A C203 = assay: standard in vitro agar dilution assay (MIC); type: cell-based; conditions: Strep. A strain C203
H. influ. 76 = assay: standard in vitro agar dilution assay (MIC); type: cell-based; conditions: read-out: Agar Dilution MIC
Pseudomonas X528 = assay: standard in vitro agar dilution assay (MIC); type: cell-based; conditions: Pseudomonas strain X528
Description: The antibacterial activity of several representative compounds of the invention has been evaluated in standard in vitro agar dilution assays. The following Table presents typical minimum inhibitory concentrations (MIC's) in μg /ml for exemplary compounds when evaluated against typical Gram + and Gram - microorganism.

Staph. epi 222 = assay: standard in vitro agar dilution assay (MIC); type: cell-based; conditions: Staph. epi strain 222
[1] = system: Enterobacter aerogenes C32; assay: standard in vitro agar dilution assay (MIC); type: cell-based; conditions: Klebsiella aerogenes
Strep. PN PARK = assay: standard in vitro agar dilution assay (MIC); type: cell-based; conditions: Strep. PN strain PARK
Klebsiella X26 = assay: standard in vitro agar dilution assay (MIC); type: cell-based
E. coli TEM = assay: standard in vitro agar dilution assay (MIC); type: cell-based; conditions: Escherichia coli, read-out: Agar Dilution MIC
E. coli N10 = assay: standard in vitro agar dilution assay (MIC); type: cell-based; conditions: Escherichia coli
Klebsiella X68 = assay: standard in vitro agar dilution assay (MIC); type: cell-based
E. coli EC14 = assay: standard in vitro agar dilution assay (MIC); type: cell-based; conditions: Escherichia coli, EC14, read-out: Agar Dilution MIC
H. influ. C.L. = assay: standard in vitro agar dilution assay (MIC); type: cell-based; conditions: read-out: Agar Dilution MIC
Titration (pKa) = type: physicochemical; conditions: 66% dimethylformamide in water v/v
Description: Titration (66% dimethylformamide in water v/v) pKa at 4.0, 7.4, 10.7.

[2] = Enterobacter cloacae, EB5, read-out: Agar Dilution MIC
[3] = Serratia, X99, read-out: Agar Dilution MIC
[4] = Staph. aureus strain X1.1, read-out: Agar Dilution MIC
[5] = Staph. aureus strain V41, read-out: Agar Dilution MIC
[6] = Enterobacter aerogenes strain C32, read-out: Agar Dilution MIC
[7] = Klebsiella strain X26, read-out: Agar Dilution MIC
[8] = N10, read-out: Agar Dilution MIC
[9] = Klebsiella, X68, read-out: Agar Dilution MIC
[10] = C32, read-out: Agar Dilution MIC
[11] = E. coli strain N10, read-out: Agar Dilution MIC
[12] = Serratia strain X99, read-out: Agar Dilution MIC

Compound	MIC (Enterobacter cloacae EB5; [2]) [µg/mL]	MIC (Staph. aureus S13E) [µg/mL]	MIC (Serratia X99; [3]) [µg/mL]	MIC (Pseudomonas X239) [µg/mL]	MIC (Staph. aureus X400) [µg/mL]	MIC (Strep. D X66) [µg/mL]	MIC (Strep. D 9960) [µg/mL]	MIC (Staph. aureus X1.1; [4]) [µg/mL]	MIC (Salmonella X514) [µg/mL]	MIC (Staph. aureus V41; [5]) [µg/mL]	MIC (Staph. epi EPI1) [µg/mL]	MIC (Klebsiella KAE) [µg/mL]	MIC (Strep. A C203) [µg/mL]	MIC (Pseudomonas X528) [µg/mL]	MIC (Staph. epi 222) [µg/mL]	MIC (Strep. PN PARK) [µg/mL]	MIC (Klebsiella X26; [7]) [µg/mL]	MIC (E. coli N10; [8]) [µg/mL]	MIC (Klebsiella X68; [9]) [µg/mL]	MIC [1, 10] [µg/mL]	also measured
CO/N=C(\C(=O)NC1C(=O)N2C(C(=O)[O-])=C(C[n+]3ccc4nc(C)sc4c3)CSC12)c1csc(N)n1 (stereo not drawn) [Example 16, syn-7-[2-(2-aminothiazol-4-yl)-2-methoxyiminoacetamido]-3-(2-methylthiazolo[5,4-c]pyridinium-5-ylmethyl)-3-cephem-4-carboxylate]	0.125 (≈ 0.229 µM)	4 (≈ 7.33 µM)	0.125 (≈ 0.229 µM)	4 (≈ 7.33 µM)	8 (≈ 14.7 µM)	> 128	8 (≈ 14.7 µM)	1 (≈ 1.83 µM)	0.03 (≈ 0.055 µM)	4 (≈ 7.33 µM)	2 (≈ 3.67 µM)	1 (≈ 1.83 µM)	0.015 (≈ 0.0275 µM)	8 (≈ 14.7 µM)	1 (≈ 1.83 µM)	–	–	–	–	–	MIC (H. influ. 76; H. influ. strain 76): 0.015 µg/mL (≈ 0.0275 µM)
CO/N=C(\C(=O)NC1C(=O)N2C(C(=O)[O-])=C(C[n+]3cccc4oc(N)nc43)CSC12)c1csc(N)n1 (stereo not drawn) [Example 10, syn-7-[2-(2-aminothiazol-4-yl)-2-methoxyiminoacetamido]-3-(2-aminooxazolo[4,5-b]pyridinium-4-ylmethyl)-3-cephem-4-carboxylate]	0.25 (≈ 0.471 µM)	4 (≈ 7.54 µM)	0.125 (≈ 0.236 µM)	2 (≈ 3.77 µM)	32 (≈ 60.3 µM)	> 128	16 (≈ 30.2 µM)	–	–	4 (≈ 7.54 µM)	2 (≈ 3.77 µM)	4 (≈ 7.54 µM)	0.015 (≈ 0.0283 µM)	4 (≈ 7.54 µM)	1 (≈ 1.88 µM)	0.015 (≈ 0.0283 µM)	0.03 (≈ 0.0565 µM)	0.125 (≈ 0.236 µM)	–	–	MIC [1, 6]: 0.125 µg/mL (≈ 0.236 µM); MIC (E. coli TEM; E. coli strain TEM): 0.03 µg/mL (≈ 0.0565 µM); MIC (H. influ. 76): 0.125 µg/mL (≈ 0.236 µM)
CC(C)(O/N=C(\C(=O)NC1C(=O)N2C(C(=O)[O-])=C(C[n+]3ccc4[nH]cnc4c3)CSC12)c1csc(N)n1)C(=O)O (stereo not drawn) [Example 1, syn-7-[2-(2-Aminothiazol-4-yl)-2-(2-carboxyprop-2-yl)oxyiminoacetamido]-3-(1H-imidazolo[4,5c]pyridinium-5-ylmethyl)-3-cephem-4-carboxylate]	0.25 (≈ 0.426 µM)	32 (≈ 54.6 µM)	0.5 (≈ 0.852 µM)	2 (≈ 3.41 µM)	128 (≈ 218 µM)	> 128	16 (≈ 27.3 µM)	8 (≈ 13.6 µM)	0.5 (≈ 0.852 µM)	–	32 (≈ 54.6 µM)	1 (≈ 1.7 µM)	–	8 (≈ 13.6 µM)	16 (≈ 27.3 µM)	–	–	0.5 (≈ 0.852 µM)	0.125 (≈ 0.213 µM)	–	MIC [1, 6]: 1 µg/mL (≈ 1.7 µM); MIC (Klebsiella X26; Klebsiella, X26, read-out: Agar Dilution MIC): 0.125 µg/mL (≈ 0.213 µM); MIC (E. coli EC14): 0.125 µg/mL (≈ 0.213 µM); MIC (H. influ. C.L.; H. influ. strain C.L.): 0.03 µg/mL (≈ 0.0511 µM); MIC (Staph. aureus V41; V41, read-out: Agar Dilution MIC): 32 µg/mL (≈ 54.6 µM); MIC (E. coli TEM): 0.125 µg/mL (≈ 0.213 µM)
CO/N=C(\C(=O)NC1C(=O)N2C(C(=O)[O-])=C(C[n+]3ccc4[nH]c(-c5cccs5)nc4c3)CSC12)c1csc(N)n1 (stereo not drawn) [Example 8, syn-7-[2-(2-aminothiazol-4-yl)-2-methoxyiminoacetamido]-3-[2-(2-thienyl)-1H-imidazolo[4,5-c]pyridinium-5-ylmethyl)-3-cephem-4-carboxylate]	0.5 (≈ 0.838 µM)	8 (≈ 13.4 µM)	0.5 (≈ 0.838 µM)	–	32 (≈ 53.6 µM)	> 128	4 (≈ 6.7 µM)	2 (≈ 3.35 µM)	0.5 (≈ 0.838 µM)	8 (≈ 13.4 µM)	4 (≈ 6.7 µM)	4 (≈ 6.7 µM)	< 0.008	–	2 (≈ 3.35 µM)	< 0.008	0.015 (≈ 0.0251 µM)	–	0.5 (≈ 0.838 µM)	0.5 (≈ 0.838 µM)	MIC (H. influ. C.L.): 0.25 µg/mL (≈ 0.419 µM); MIC (E. coli N10; [11]): 1 µg/mL (≈ 1.68 µM)
CO/N=C(\C(=O)N[C@@H]1C(=O)N2C(C(=O)[O-])=C(C[n+]3cccc4nc(N)sc43)CS[C@H]12)c1csc(N)n1 [Example 15, syn-7-[2-(2-aminothiazol-4-yl)-2-methoxyiminoacetamido]-3-(2-aminothiazolo[5,4-b]pyridinium-4-ylmethyl)-3-cephem-4-carboxylate]	–	4 (≈ 7.32 µM)	–	2 (≈ 3.66 µM)	–	–	8 (≈ 14.6 µM)	–	–	2 (≈ 3.66 µM)	2 (≈ 3.66 µM)	–	0.015 (≈ 0.0274 µM)	1 (≈ 1.83 µM)	16 (≈ 29.3 µM)	–	–	–	–	–	MIC (Klebsiella X68; Klebsiella strain X68, read-out: Agar Dilution MIC): 4 µg/mL (≈ 7.32 µM); pKa (second) (Titration (pKa)): 7.4; pKa (third) (Titration (pKa)): 10.7; pKa (Titration (pKa); read-out: pKa (first)): 4
CO/N=C(\C(=O)NC1C(=O)N2C(C(=O)[O-])=C(C[n+]3ccc4oc(C)nc4c3)CSC12)c1csc(N)n1 (stereo not drawn) [Example 11, syn-7-[2-(2-aminothiazol-4-yl)-2-methoxyiminoacetamido]-3-(2-methyloxazolo[4,5-c]pyridinium-5-ylmethyl)-3-cephem-4-carboxylate]	0.125 (≈ 0.236 µM)	8 (≈ 15.1 µM)	0.125 (≈ 0.236 µM)	2 (≈ 3.78 µM)	32 (≈ 60.4 µM)	> 128	8 (≈ 15.1 µM)	–	0.03 (≈ 0.0567 µM)	8 (≈ 15.1 µM)	4 (≈ 7.55 µM)	4 (≈ 7.55 µM)	0.015 (≈ 0.0283 µM)	4 (≈ 7.55 µM)	1 (≈ 1.89 µM)	0.015 (≈ 0.0283 µM)	0.015 (≈ 0.0283 µM)	–	–	–	MIC (Staph. aureus X1.1; X1.1, read-out: Agar Dilution MIC): 0.5 µg/mL (≈ 0.944 µM); MIC (H. influ. C.L.): 0.125 µg/mL (≈ 0.236 µM)
CO/N=C(\C(=O)NC1C(=O)N2C(C(=O)[O-])=C(C[n+]3ccc4nc(C(C)(C)C)sc4c3)CSC12)c1csc(N)n1 (stereo not drawn) [Example 17, syn-7-[2-(2-aminothiazol-4-yl)-2-methoxyiminoacetamido]-3-(2-tert.-butylthiazolo[5,4-c]pyridinium-5-ylmethyl)-3-cephem-4-carboxylate]	–	8 (≈ 13.6 µM)	–	–	32 (≈ 54.4 µM)	> 128	4 (≈ 6.81 µM)	1 (≈ 1.7 µM)	0.5 (≈ 0.851 µM)	4 (≈ 6.81 µM)	4 (≈ 6.81 µM)	4 (≈ 6.81 µM)	0.015 (≈ 0.0255 µM)	–	1 (≈ 1.7 µM)	0.015 (≈ 0.0255 µM)	–	0.5 (≈ 0.851 µM)	0.5 (≈ 0.851 µM)	0.5 (≈ 0.851 µM)	MIC (Enterobacter cloacae EB5; Enterobacter cloacae strain EB5, read-out: Agar Dilution MIC): 1 µg/mL (≈ 1.7 µM); MIC (Serratia X99; [12]): 1 µg/mL (≈ 1.7 µM); MIC (H. influ. C.L.): 0.25 µg/mL (≈ 0.425 µM); MIC (H. influ. 76): 0.125 µg/mL (≈ 0.213 µM)
CO/N=C(\C(=O)NC1C(=O)N2C(C(=O)[O-])=C(C[n+]3ccc4[nH]c(-c5ccccc5)nc4c3)CSC12)c1csc(N)n1 (stereo not drawn) [Example 9, syn-7-[2-(2-aminothiazol-4-yl)-2-methoxyiminoacetamido]-3-(2-phenyl-1H-imidazolo[4,5-c]pyridinium-5-ylmethyl)-3-cephem-4-carboxylate]	0.5 (≈ 0.847 µM)	8 (≈ 13.5 µM)	–	–	32 (≈ 54.2 µM)	> 128	4 (≈ 6.77 µM)	2 (≈ 3.39 µM)	0.5 (≈ 0.847 µM)	8 (≈ 13.5 µM)	4 (≈ 6.77 µM)	2 (≈ 3.39 µM)	< 0.008	–	2 (≈ 3.39 µM)	< 0.008	0.015 (≈ 0.0254 µM)	–	0.5 (≈ 0.847 µM)	0.5 (≈ 0.847 µM)	MIC (Serratia X99; [12]): 1 µg/mL (≈ 1.69 µM); MIC (E. coli EC14): 0.125 µg/mL (≈ 0.212 µM); MIC (H. influ. C.L.; H. influ. strain C.L.): 0.5 µg/mL (≈ 0.847 µM); MIC (E. coli N10; [11]): 1 µg/mL (≈ 1.69 µM)
